In brackets after ≈: the same amount, converted by molar mass. Several values for one entry are separate records, joined by “and”; a condition that tells them apart may be missing. Equal entries are not always repeated. Where two headings read alike, the source gives them in different places.
Legend:
[1] = tested on: Candida albicans NRRL Y-477; experiment: Agar well diffusion, C. albicans; format: cell-based; conditions: NRRLY477, 100 μL of 10 mg/mL in DMSO, read-out: diameter of inhibition zone, CA
Excerpt: (§1) The new molecules were individually tested for their antimicrobial activity in vitro against standard bacteria strains from the American Type Culture Collection (ATCC), namely, Staphylococcus aureus ATCC 29213, Bacillus subtilis ATCC 6633, Bacillus megaterium ATCC 9885 (Gram-positive), Escherichia coli ATCC 2592, and Pseudomonas aeruginosa ATCC 27,953 (Gram-negative). The compounds were also microbiologically tested against locally isolated Saccharomyces cerevisiae (yeast) and the standard Agricultural Research Service Culture Collection (NRRL) strain of the yeast-like pathogenic fungus Candida albicans NRRL Y-477. Primary screening was conducted using the agar well diffusion method using nutrient agar (NA) medium and Sabourand dextrose agar (SDA) medium for the tested pathological bacteria and yeast, respectively. […].
(§2) Antimicrobial tests were conducted via the agar well diffusion method using 100 μL of suspension containing 1 × 10^8 CFU/mL pathological tested bacteria and 1 × 10^6 CFU/mL yeast spread on NA and SDA, respectively. After the media cooled and solidified, wells (10 mm in diameter) were made in the solidified agar and loaded with 100 μL of the tested compound solution prepared by dissolving 10 mg of the chemical compound in 1 mL dimethyl sulfoxide (DMSO). The inoculated plates were then incubated for 24 h at 37 °C for bacteria and yeast growth. DMSO served as negative control. Ciprofloxacin (10 mg/mL) and ketoconazole (10 mg/mL) were used as standards for antibacterial and antifungal activity, respectively. After incubation, antimicrobial activity was evaluated by measuring the zone of inhibition against the test organisms and compared with that of the standard. Antimicrobial activities were expressed as the diameter of the inhibition zone (IZ) in mm. The experiment was carried out in triplicate and the average zone of inhibition was calculated.

[2] = tested on: Pseudomonas aeruginosa ATCC 27,953; experiment: Agar well diffusion, P. aeruginosa; format: cell-based; conditions: ATCC27, 100 μL of 10 mg/mL in DMSO, read-out: diameter of inhibition zone, PA
Excerpt: as §1, §2

trypsin = experiment: Proteinase-inhibitory activity; format: biochemical; conditions: 250 µg/mL; mean ± SD (n = 3)
Experimental: The newly synthesised compounds were individually tested for their in vitro anti-inflammatory activity against proteinase enzyme. […] This test was performed at the Pharmacology Department, Medical Research Division, National Research Centre, Cairo, Egypt. Furthermore, compounds 2–8 were evaluated for their COX1/COX2 inhibitory activities.
The test was performed according to El-Serwy et al. with minor modifications. The reaction mixture (2 mL) contained 0.06 mg trypsin, 20 mM Tris HCl buffer (pH 7.4), and 1 mL test sample (250 µg/mL for each compound). After incubating for 5 min, 1 mL of 0.8% (w/v) casein was added. The mixture was incubated for an additional 20 min. The reaction was arrested by adding 1 mL of 10% perchloric acid. The cloudy suspension was centrifuged, and the absorbance of the supernatant was read at 280 nm. Reference standard aspirin was used as the positive control. The experiment was performed in triplicate. The percent inhibition of protein denaturation was calculated using the following Equation (2):(2) % Inhibition=100−A control −A test/A control×100 where Acontrol and Atest represent the absorbance of the control reaction without and with the sample, respectively.

[3] = tested on: Staphylococcus aureus ATCC 29213; experiment: Agar well diffusion, S. aureus; format: cell-based; conditions: ATCC29213, 100 μL of 10 mg/mL in DMSO, read-out: diameter of inhibition zone, SA
Excerpt: as §1, §2

COX-1 = target: T1, COX-1 (Homo sapiens, UniProt P23219); experiment: COX-1 inhibition, Cayman assay kit; format: biochemical; conditions: mean of two determinations
T1 construct: purchased Cayman Chemical 701070
T1 sequence (P23219 24-599): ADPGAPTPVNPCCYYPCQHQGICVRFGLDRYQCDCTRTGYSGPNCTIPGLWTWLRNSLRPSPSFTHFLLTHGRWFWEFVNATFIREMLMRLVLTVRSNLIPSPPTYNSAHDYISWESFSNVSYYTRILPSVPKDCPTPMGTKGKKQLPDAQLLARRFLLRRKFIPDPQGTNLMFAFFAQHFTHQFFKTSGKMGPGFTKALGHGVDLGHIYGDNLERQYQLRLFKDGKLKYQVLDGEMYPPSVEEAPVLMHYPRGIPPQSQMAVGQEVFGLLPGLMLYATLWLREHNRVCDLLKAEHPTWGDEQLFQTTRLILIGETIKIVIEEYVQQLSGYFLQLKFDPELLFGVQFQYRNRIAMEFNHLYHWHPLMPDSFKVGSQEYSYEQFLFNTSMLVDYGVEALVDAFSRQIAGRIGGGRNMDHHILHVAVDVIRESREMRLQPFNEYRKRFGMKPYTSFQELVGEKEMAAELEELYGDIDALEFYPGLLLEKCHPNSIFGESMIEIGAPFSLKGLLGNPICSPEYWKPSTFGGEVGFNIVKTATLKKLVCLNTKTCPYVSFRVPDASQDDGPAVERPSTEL

[4] = tested on: Bacillus subtilis ATCC 6633; experiment: Agar well diffusion, B. subtilis; format: cell-based; conditions: ATCC6633, 100 μL of 10 mg/mL in DMSO, read-out: diameter of inhibition zone, BS
Excerpt: as §1, §2

COX-2 = target: T2, COX-2 (Homo sapiens, UniProt P35354); experiment: COX-2 inhibition, Cayman assay kit; format: biochemical; conditions: for IC50: mean of two determinations; for SI, selectivity index (COX-1/COX-2): ratio of COX-1/COX-2 IC50
T2 construct: purchased Cayman Chemical 701080
T2 sequence (P35354 18-604): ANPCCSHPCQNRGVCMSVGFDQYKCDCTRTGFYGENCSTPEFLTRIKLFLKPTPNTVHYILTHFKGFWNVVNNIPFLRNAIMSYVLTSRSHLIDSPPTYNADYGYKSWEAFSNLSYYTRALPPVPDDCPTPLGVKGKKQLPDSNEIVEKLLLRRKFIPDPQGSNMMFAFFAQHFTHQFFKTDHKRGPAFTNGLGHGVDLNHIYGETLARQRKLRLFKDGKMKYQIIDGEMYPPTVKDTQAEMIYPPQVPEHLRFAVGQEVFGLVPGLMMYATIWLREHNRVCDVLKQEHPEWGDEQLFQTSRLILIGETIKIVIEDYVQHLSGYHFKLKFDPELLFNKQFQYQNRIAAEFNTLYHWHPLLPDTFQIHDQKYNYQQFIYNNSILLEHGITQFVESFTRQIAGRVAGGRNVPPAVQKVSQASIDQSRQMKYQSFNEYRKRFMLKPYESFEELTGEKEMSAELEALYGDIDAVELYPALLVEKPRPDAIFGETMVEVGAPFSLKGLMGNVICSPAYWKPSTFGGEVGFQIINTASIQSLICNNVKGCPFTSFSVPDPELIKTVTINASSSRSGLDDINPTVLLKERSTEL

[5] = tested on: Bacillus megaterium ATCC 9885; experiment: Agar well diffusion, B. megaterium; format: cell-based; conditions: Priestia megaterium, ATCC9885, 100 μL of 10 mg/mL in DMSO, read-out: diameter of inhibition zone, BM
Excerpt: as §1, §2

[6] = tested on: Saccharomyces cerevisiae local isolate; experiment: Agar well diffusion, S. cerevisiae; format: cell-based; conditions: read-out: diameter of inhibition zone, SC
Excerpt: as §1, §2

[7] = DPPH antioxidant assay (radical scavenging); format: biochemical; conditions: mean ± SD (n = 3)
Experimental: The antioxidant effects of the synthesised compounds were assessed using the 2,2-diphenyl-1-picrylhydrazyl (DPPH) antioxidant assay. Table 1 summarises the antioxidant effects of the test samples and ascorbic acid except for compound 5b because it was produced in poor yield.
The radical scavenging activity of the synthesised compounds was measured using the DPPH microplate-based method. The absorbance was measured using a microplate/cuvette reader (Spectramax M5, Molecular Devices, San Jose, CA, USA). Reference standard ascorbic acid was utilised as the positive control for this assay. Test samples were prepared at a starting concentration of 200 μg/mL after mixing with 100 μL of 0.2 mM DPPH methanolic solution. […] Samples were incubated with DPPH in the dark for 30 min at room temperature (25 °C). The methanolic DPPH solution was prepared daily and stored in a flask covered with aluminium foil. DPPH radicals have an absorption maximum (λmax) at 515 nm, at which the absorbance values were measured and converted into a percentage of antioxidant activity.
The methanolic DPPH solution without antioxidants was used as a control, and samples in methanol alone served as a background control. IC50 was determined using GraphPad Prism 7 (GraphPad Software Inc., San Diego, CA, USA). The percent inhibition was calculated using the following Equation (1):(1) % Inhibition=100−Sample Absorbance −Sample background Absorbance/DPPH only Absorbance×100
The assay was carried out in triplicate and performed as much as possible in an area protected against light. The data points are presented as the mean ± standard deviation (SD, n = 3).

[8] = tested on: Escherichia coli ATCC 2592; experiment: Agar well diffusion, E. coli; format: cell-based; conditions: ATCC2592, 100 μL of 10 mg/mL in DMSO, read-out: diameter of inhibition zone, EC
Excerpt: as §1, §2

[9] = well diffusion, 100 μL of 10 mg/mL in DMSO, S. cerevisiae

SMILES	zone of inhibition at 10000 µg/mL [1]	melting point	zone of inhibition at 10000 µg/mL [2]	% Inhibition (proteinase) (trypsin)	zone of inhibition at 10000 µg/mL [3]	IC50 (COX-1)	zone of inhibition at 10000 µg/mL [4]	IC50 (COX-2)	SI, selectivity index (COX-1/COX-2) (COX-2)	zone of inhibition at 10000 µg/mL [5]	zone of inhibition at 10000 µg/mL [6]	IC50 [7]	zone of inhibition at 10000 µg/mL [8]	zone of inhibition at 10000 µg/mL [6, 9]
Cc1ccc2oc(=O)c3c(c2c1)OC(/N=C/N(C)C)=C(C#N)C3c1ccc([N+](=O)[O-])cc1 (racemic) [4a, (±)-N′-(3-cyano-9-methyl-4-(4-nitrophenyl)-5-oxo-4H,5H-pyrano[3,2-c]chromen-2-yl)-N,N-dimethylformimidamide]	< 15 mm	279 to 281 °C	< 15 mm	31.99 ± 2.45%	16 mm	12.5 µM	< 15 mm	7.99 µM	1.56	< 15 mm	< 15 mm	— ((—): inactive (IC50 > 200 μg/mL))	< 15 mm	
Cc1ccc2oc(=O)c3c(c2c1)OC(/N=C/N(C)C)=C(C#N)C3c1ccco1 (racemic) [4b, (±)-N′-(3-cyano-4-(furan-2-yl)-9-methyl-5-oxo-4H,5H-pyrano[3,2-c]chromen-2-yl)-N,N-dimethylformimidamide]	< 15 mm	273 to 275 °C	15 mm	33.17 ± 2.79%	16 mm	57.5 µM	< 15 mm	25.2 µM	2.28	< 15 mm	< 15 mm	— ((—): inactive (IC50 > 200 μg/mL))	15 mm	
Cc1ccc2oc(=O)c3c(c2c1)OC(/N=C/c1ccccc1)=C(C#N)C3c1ccco1 (racemic) [5b, (±)-2-(benzylideneamino)-4-(furan-2-yl)-9-methyl-5-oxo-4H,5H-pyrano[3,2-c]chromene-3-carbonitrile]		250 to 252 °C				215 µM		19.6 µM	10.9 and 10.97					
CC(=O)c1ccc(NS(=O)(=O)c2c(O)c3cc(Cl)ccc3oc2=O)cc1 [8e, N-(4-acetylphenyl)-6-chloro-4-hydroxy-2-oxo-2H-chromene-3-sulfonamide]	< 15 mm	238 to 240 °C	< 15 mm	18.5 ± 3.47%	< 15 mm	19.9 µM	15 mm	9.22 µM	2.2 and 2.16	16 mm		32.85 ± 1.322 µg/mL (≈ 83.4 µM)	< 15 mm	< 15 mm
CC(=O)c1ccc(NS(=O)(=O)c2c(O)c3cc(C)ccc3oc2=O)cc1 [8f, N-(4-acetylphenyl)-4-hydroxy-6-methyl-2-oxo-2H-chromene-3-sulfonamide]	< 15 mm	231 to 232 °C	< 15 mm	2.0 ± 1.4%	16 mm	7.92 µM	15 mm	25.7 µM	0.3 and 0.31	15 mm		35.36 ± 3.265 µg/mL (≈ 94.7 µM)	< 15 mm	< 15 mm
O=C1O[C@H]([C@@H](O)CO)C(O)=C1O [Ascorbic acid, reference compound]												2.83 ± 0.166 µg/mL (≈ 16.1 µM)		
CC(=O)Oc1ccccc1C(=O)O [Aspirin, reference compound]				45.83 ± 4.21%										

— article PMC7397269, “Synthesis and Evaluation of New Coumarin Derivatives as Antioxidant, Antimicrobial, and Anti-Inflammatory Agents” (Molecules, 2020)
